The values that follow come from patent US11096975B2, “Compositions for use in the treatment of tumors resistant to chemotherapy” (PROBIOTICAL S.P.A., priority 2015, dated 2021).

Series [1] concerns MDA-MB-231 (breast adenocarcinoma). Kind of series: Cell viability of chemoresistant MDA-MB-231 cells (Tables 1, 2, 4). From the text:
(§1) The activity of the association of at least one flavonoid with synthetic chemotherapeutic agents (cyclophosphamide/methotrexate) and/or arctigenin, arctiin, berberine, berbamine, sanguinarine and chelerythrine (indicated with the term “Extracts” in the Tables) was studied in resistant cell lines of adenocarcinomas and carcinomas in comparison with chemosensitive tumour cell lines and line cells.
(§2) In particular, chemoresistant human tumour cells MDA-MB-231 (breast adenocarcinoma), ECV-304 (bladder carcinoma), HuH-7 (hepatocellular carcinoma) and HTB-43 (squamous cell carcinoma of the pharynx), chemosensitive tumour cells MCF-7 (breast adenocarcinoma) and non-tumoral healthy human mammal fibroblasts (HMF) were used.

Series [2] relates to MCF-7 (breast adenocarcinoma). Kind of series: Cell viability of chemosensitive MCF-7 cells (Table 1). As to conditions: Homo sapiens, MCF7, read-out: Cell viability (%) MCF-7.
Description: as §1, §2

Another series can be described thus: in vitro. The settings on record: human.
Description: as §1, §2

For another series, the system named is MDA-MB-231 cells. Kind of series: Cell viability of MDA-MB-231 cells after 7 days of treatment (Tables 7-9). It counts as cell-based, human.
Series [3] deals with healthy human mammal fibroblasts (HMF). In words: Cell viability of non-tumoral healthy fibroblasts HMF (Table 1). The settings on record: control = 100.
Description: as §1, §2

Series [4] concerns ECV-304 (bladder carcinoma). Kind of series: cells. The settings on record: Homo sapiens, ECV-304, read-out: Cell viability (%) ECV-304.
Description: as §1, §2

Series [5] concerns HTB-43 (squamous cell carcinoma of the pharynx). In words: cells. As to conditions: Homo sapiens, read-out: Cell viability (%) HTB-43.
Description: as §1, §2

For series [6], the system named is HuH-7 (hepatocellular carcinoma). Kind of series: cells. The settings on record: Homo sapiens, Huh-7, read-out: Cell viability (%) HuH-7.
Description: as §1, §2

The mark [7] stands for this setting: Homo sapiens, MDA-MB-231, read-out: Cell viability (%) MDA-MB-231.

The structures appear in SMILES notation.

The viability is the share of living cells, or the viability signal relative to a control.

For the compound `O=c1c(O)c(-c2ccc(O)c(O)c2)oc2cc(O)cc(O)c12` [Quercetin, quercetin], in series [1] (setting [7]), the viability at 20 µM amounted to 91%, the viability at 50 µM came out at 81% and the viability at 100 µM came to 76%. Also, the “Synergistic effect in association with cyclophosphamide” value in series [1] (MDA-MB-231 cells, alone or with cyclophosphamide 850 ng/mL) is reported as “absence of synergistic effects”.

Consider `C[C@@H]1O[C@@H](OC[C@H]2O[C@@H](Oc3c(-c4ccc(O)c(O)c4)oc4cc(O)cc(O)c4c3=O)[C@H](O)[C@@H](O)[C@@H]2O)[C@H](O)[C@H](O)[C@H]1O` [Rutin, 2-(3,4-dihydroxyphenyl)-4,5-dihydroxy-3-{3,4,5-trihydroxy-6-[(3,4,5-trihydroxy-6-methyl-oxan-2-yl)oxymethyl}oxan-2-yl]oxy-chromen-7-one], for which, in series [1] (setting [7]), the viability at 20 µM was found to be 66%, the viability at 50 µM worked out at 58% and the viability at 100 µM was determined as 51%. In addition, in series [2], the viability at 20 µM was found to be 8%, the viability at 50 µM came out at 5% and the viability at 100 µM was determined as 4%. For the same compound, in “in vitro”, the viability at 20 µM was 92%, the viability at 50 µM worked out at 88% and the viability at 100 µM worked out at 86%. For the same compound, the “Effect on cell viability of adding the flavonoid to cyclophosphamide 20 μM+methotrexate 2 μM” value with MDA-MB-231 cells (20 μM of rutin, MDA-MB-231, 7 days) is “further reduces cell viability”. In the series on MDA-MB-231 cells (rutin at 100 μM and 50 μM, MDA-MB-231, 7 days), the “Effect on cell viability of adding the flavonoid to cyclophosphamide 40 μM+methotrexate 4 μM” value is on record as “no statistically relevant difference”.

`O=P1(N(CCCl)CCCl)NCCCO1` (stereo not shown) [Cyclophosphamide, cyclophosphamide]: the viability at 0.85 µg/mL in series [1] (setting [7]) was 96%; in series [2], 6.9%; in series [4], 70%; in series [5], 36%; in series [6], 58%. Moreover, the results for the viability at 1 µg/mL in series [1] (setting [7]) and in series [2] were 93% and 7.5%, respectively. Besides, the viability at 1.3 µg/mL turned out to be 89% in series [1] (setting [7]) and 8.6% in series [2]. Besides, the “Cell viability (%) HMF” value in series [3] (single agent at 850 ng/mL) is 54%; in series [3] (single agent at 1000 ng/mL), 48%; in series [3] (single agent at 1300 ng/mL), 42%. Further, the viability at 40 µM in the series on MDA-MB-231 cells (Homo sapiens, MDA-MB-231, 168 h, read-out: Cell viability % (MDA-MB-231, 7 days)) turned out to be 1.07 ± 0.22%.
